Data on three molecules can be found in patent publication US20170198318A1, “METHOD OF MANUFACTURING METHOXY-ISOFLAVONES BY BIOTRANSFORMATION AND USE THEREOF” (NATIONAL UNIVERSITY OF TAINAN, priority 2016, published 2017).

Series [1] deals with Mouse B16 melanoma cells (4A5). The series can be described thus: Melanin content / inhibition of melanogenesis in IBMX-stimulated B16 cells. The class given is cell-based. On the procedure: (§1) The ranges of non-toxic concentrations of the compounds toward the B16 cells was first determined with the 3-(4,5-dimethylthiazol-2-yl)-2,5-diphenyltetrazolium bromide (MTT) method. Mouse B16 melanoma cells (4A5) was purchased from the Bioresources Collection and Research Center (BCRC, Food Industry Research and Development Institute, Hsinchu, Taiwan). Determinations of cell viability and melanin content were performed as previously reported [Appl. Microbiol. Biotechnol. 2007; 73:1169-1172] and described briefly below. Dulbecco's modified Eagle's medium (DMEM) containing 10% (v/v) fetal bovine serum was used to cultivate mouse B16 cells, which were incubated at 37° C. in a humidified, CO2-controlled (5%) incubator. After 1 day of incubation, the cells were treated with tested drugs in the presence of a melanogenesis stimulation agent (400 μM of 3-isobutyl-1-methylxanthine (IBMX)) for another 2 days. Then, the drug-treated cells were harvested and the cell viability and melanin content were measured according to the previous study [Curr. Pharma. Biotechnol. 2015; 16:1085-1093]. In this experiment, cells only treated with IBXM is used as a negative control and cells treated with 20 μM danazol is used as a positive control.
The X axis includes different treatment conditions, and the Y axis of the results represents cell survival rate or relative melanin content. Both of the cell survival rate and the relative melanin content are expressed as percentage of control (% of control). […] Accordingly, the 25 μM was used as the maximum concentration in the determination of the inhibition of melanogenesis.
Pharm. Res. 2010; 33:1959-19].

Series [2] concerns Mouse B16 melanoma cells (4A5). As to the kind of experiment: Cell viability (MTT method) in B16 cells. The class given is cell-based. To be noted: under a concentration of 25 μM, with 400 μM IBMX, 2 days. The method, then:
as §1, with “In this experiment, cells only treated with IBXM is used as a negative control and cells treated with 20 μM danazol is used as a positive control.” left out
The X axis includes different treatment conditions, and the Y axis of the results represents cell survival rate or relative melanin content. Both of the cell survival rate and the relative melanin content are expressed as percentage of control (% of control). […]
For orientation: Tetrazolium assays rely on reduction of a dye to a coloured formazan, in cell work by metabolically active cells.

In series [3] the test system is melanogenesis. To be noted: Arch. Pharm. Res. 2010; cited from earlier work.
Setting [4] is: non-toxic concentrations, 400 μM IBMX, 2 days.

`COc1c(O)ccc2c(=O)c(-c3ccc(O)cc3)coc12` [compound (1), 7,4′-dihydroxy-8-methoxy-isoflavone]: the inhibition of melanogenesis result is “show inhibition of melanogenesis” in series [1] (6.25 μM and 25 μM, compared with the control group); “dose-dependently inhibited melanogenesis” in series [1] (setting [4]); “inhibitory effect on melanogenesis” in series [1] (non-toxic concentrations, 400 μM IBMX, 2 days, listed as 7,4′-dihydroxy-8-methoxy-isoflavone). Moreover, the activity at 25 µM in series [1] (Mus musculus, 48 h, 25 μM, 400 μM IBMX, 2 days, read-out: melanin content (% of control)) stood at 63.5%. For the same molecule, in series [1] (danazol 20 μM), the “inhibition of melanogenesis compared with positive control danazol” value was “greater than that produced by danazol”. Moreover, the “cytotoxicity (cell survival rate)” value in series [2] was “did not exhibit cytotoxicity”.

`COc1ccc2c(=O)c(-c3ccc(O)cc3)coc2c1O` [compound (2), 8,4′-dihydroxy-7-methoxy-isoflavone]: in series [1] (setting [4]), the inhibition of melanogenesis entry is listed as “dose-dependently inhibited melanogenesis”. The “cytotoxicity (cell survival rate)” value in series [2] is listed as “did not exhibit cytotoxicity”.

Take `C#C[C@]1(O)CC[C@H]2[C@@H]3CCC4=Cc5oncc5C[C@]4(C)[C@H]3CC[C@@]21C` [danazol]: in series [3], the “melanogenesis inhibition (previously identified)” value is “potent melanogenesis inhibitor”.
